From ChEMBL document CHEMBL1649141, “Synthesis and antimalarial activities of cyclen 4-aminoquinoline analogs” (Antimicrob Agents Chemother, 2009) come the findings set out here.

For orientation: IC50 means the concentration that inhibits the measured activity by half.

The subject of data set [1] is Plasmodium falciparum. Nature of the data set: Antimalarial activity against […]-resistant Plasmodium falciparum TM91C235 assessed as [3H]hypoxanthine incorporation. The format is functional, organism-based.
Data set [2] relates to Plasmodium falciparum. Nature of the data set: Antimalarial activity against chloroquine-resistant Plasmodium falciparum W2 assessed as [3H]hypoxanthine incorporation. The format is functional, organism-based.
Data set [3] deals with Plasmodium berghei. Nature of the data set: Antimalarial activity against Plasmodium berghei NK-65 infected in Swiss Webster mouse assessed as cure from parasite infection at 30 mg/kg, ip QD for 3 days administered 2 hrs post infection measured on day 28. As to conditions: route intraperitoneal. The class given is functional.
The next data set relates to Vero. Briefly: Cytotoxicity against african green monkey Vero cells upto 10 uM after 72 hrs. The class given is cell-based. The note with it: chlorocebus sabaeus.
The subject of data set [4] is Plasmodium berghei. Nature of the data set: Antimalarial activity against Plasmodium berghei NK-65 infected in Swiss Webster mouse assessed as suppression of parasitemia at 30 mg/kg, ip QD for 3 days administered 2 hrs post infection measured on day 10. The class given is functional. The note with it: route intraperitoneal.
The subject of a further data set is Mus musculus. Nature of the data set: Toxicity in Plasmodium berghei NK-65 infected Swiss Webster mouse at 30 mg/kg, ip QD for 3 days. The format is organism-based. More on the design: dose 30 mg/kg, route intraperitoneal. The note with it: in vivo, 72 h.
For data set [5], the system named is Plasmodium berghei. Nature of the data set: Antimalarial activity against Plasmodium berghei NK-65 infected in Swiss Webster mouse assessed as suppression of parasitemia at 30 mg/kg, ip QD for 3 days administered 2 hrs post infection measured on day 7. The note with it: route intraperitoneal. The class given is functional.
The test system of data set [6] is Plasmodium berghei. Nature of the data set: Antimalarial activity against Plasmodium berghei NK-65 infected in Swiss Webster mouse assessed as suppression of parasitemia at 30 mg/kg, ip QD for 3 days administered 2 hrs post infection measured on day 5. The format is functional. As to conditions: route intraperitoneal.
The nature of data set [7]: Inhibition of beta-hematin formation after 14 hrs by spectrophotometry. The class given is functional.
Data set [8] concerns Plasmodium berghei. Briefly: Antimalarial activity against Plasmodium berghei NK-65 infected in Swiss Webster mouse assessed as mean survival time at 30 mg/kg, ip QD for 3 days administered 2 hrs post infection. The class given is functional. The note with it: route intraperitoneal.
The test system of data set [9] is Plasmodium berghei. Briefly: Antimalarial activity against Plasmodium berghei NK-65 infected in Swiss Webster mouse assessed as suppression of parasitemia at 3.3 mg/kg, ip QD for 3 days administered 2 hrs post infection measured on day 5. The class given is functional. As to conditions: route intraperitoneal.
The test system of data set [10] is Plasmodium berghei. Briefly: Antimalarial activity against Plasmodium berghei NK-65 infected in Swiss Webster mouse assessed as suppression of parasitemia at 10 mg/kg, ip QD for 3 days administered 2 hrs post infection measured on day 5. The class given is functional. As to conditions: route intraperitoneal.
The subject of data set [11] is Plasmodium berghei. Briefly: Antimalarial activity against Plasmodium berghei NK-65 infected in Swiss Webster mouse assessed as mean survival time at 3.3 mg/kg, ip QD for 3 days administered 2 hrs post infection. The class given is functional. As to conditions: route intraperitoneal.
Data set [12] deals with Plasmodium berghei. Nature of the data set: Antimalarial activity against Plasmodium berghei NK-65 infected in Swiss Webster mouse assessed as cure from parasite infection at 10 mg/kg, ip QD for 3 days administered 2 hrs post infection measured on day 28. The format is functional, organism-based. More on the design: dose 10 mg/kg.
Data set [13] is described as follows: Selectivity index, ratio of IC50 for african green monkey Vero cells to IC50 for chloroquine-sensitive Plasmodium falciparum D6. The format is toxicity, cell-based. As to conditions: read-out: Selectivity Index.
In data set [14] the test system is Plasmodium berghei. Briefly: Antimalarial activity against Plasmodium berghei NK-65 infected in Swiss Webster mouse assessed as suppression of parasitemia at 10 mg/kg, ip QD for 3 days administered 2 hrs post infection measured on day 7. The format is functional. The note with it: route intraperitoneal.
In data set [15] the test system is Plasmodium berghei. Briefly: Antimalarial activity against Plasmodium berghei NK-65 infected in Swiss Webster mouse assessed as mean survival time at 10 mg/kg, ip QD for 3 days administered 2 hrs post infection. As to conditions: route intraperitoneal. The format is functional.
Data set [16] concerns Plasmodium berghei. Briefly: Antimalarial activity against Plasmodium berghei NK-65 infected in Swiss Webster mouse assessed as suppression of parasitemia at 1.1 mg/kg, ip QD for 3 days administered 2 hrs post infection measured on day 5. The class given is functional. The note with it: route intraperitoneal.
In data set [17] the test system is Plasmodium berghei. Nature of the data set: Antimalarial activity against Plasmodium berghei NK-65 infected in Swiss Webster mouse assessed as suppression of parasitemia at 1.1 mg/kg, ip QD for 3 days administered 2 hrs post infection measured on day 10. The format is functional. The note with it: route intraperitoneal.
Data set [18] has as its system Plasmodium berghei. Nature of the data set: Antimalarial activity against Plasmodium berghei NK-65 infected in Swiss Webster mouse assessed as mean survival time at 1.1 mg/kg, ip QD for 3 days administered 2 hrs post infection measured on day 28. The format is functional. The note with it: route intraperitoneal.
A short description of data set [19]: Selectivity index, ratio of IC50 for african green monkey Vero cells to IC50 for chloroquine-resistant Plasmodium falciparum W2. The note with it: read-out: Selectivity Index. The format is toxicity, cell-based.
The subject of data set [20] is Plasmodium berghei. Briefly: Antimalarial activity against Plasmodium berghei NK-65 infected in Swiss Webster mouse assessed as cure from parasite infection at 3.3 mg/kg, ip QD for 3 days administered 2 hrs post infection measured on day 28. The class given is functional, organism-based. More on the design: dose 3.3 mg/kg.
In data set [21] the test system is Plasmodium berghei. Briefly: Antimalarial activity against Plasmodium berghei NK-65 infected in Swiss Webster mouse assessed as suppression of parasitemia at 3.3 mg/kg, ip QD for 3 days administered 2 hrs post infection measured on day 10. The format is functional. As to conditions: route intraperitoneal.
Data set [22] relates to Plasmodium berghei. Nature of the data set: Antimalarial activity against Plasmodium berghei NK-65 infected in Swiss Webster mouse assessed as suppression of parasitemia at 1.1 mg/kg, ip QD for 3 days administered 2 hrs post infection measured on day 7. The format is functional. The note with it: route intraperitoneal.
In data set [23] the test system is Plasmodium falciparum. Briefly: Antimalarial activity against chloroquine-resistant Plasmodium falciparum W2 after 72 hrs. The note with it: W2, 72 h. The format is functional, organism-based.
Data set [24] relates to Plasmodium berghei. Briefly: Antimalarial activity against Plasmodium berghei NK-65 infected in Swiss Webster mouse assessed as suppression of parasitemia at 10 mg/kg, ip QD for 3 days administered 2 hrs post infection measured on day 10. The note with it: route intraperitoneal. The class given is functional.
In data set [25] the test system is Plasmodium berghei. Nature of the data set: Antimalarial activity against Plasmodium berghei NK-65 infected in Swiss Webster mouse assessed as suppression of parasitemia at 3.3 mg/kg, ip QD for 3 days administered 2 hrs post infection measured on day 7. The class given is functional. The note with it: route intraperitoneal.
Data set [26] relates to Plasmodium falciparum. Nature of the data set: Antimalarial activity against chloroquine-sensitive Plasmodium falciparum D6 after 72 hrs. The class given is functional, organism-based. As to conditions: D6, 72 h.
Data set [27] deals with Plasmodium berghei. Nature of the data set: Antimalarial activity against Plasmodium berghei NK-65 infected in Swiss Webster mouse assessed as cure from parasite infection at 1.1 mg/kg, ip QD for 3 days administered 2 hrs post infection measured after 28 days. The class given is functional, organism-based. Further details: dose 1.1 mg/kg.
Data set [28] has as its system Plasmodium falciparum. Briefly: Antimalarial activity against chloroquine-sensitive Plasmodium falciparum D6 assessed as [3H]hypoxanthine incorporation. The class given is functional, organism-based.

The source made the active and inactive calls. The rule behind the calls is not given here. A value given as a limit tells only on which side of the number the result lay.

`OC(c1cc(C(F)(F)F)nc2c(C(F)(F)F)cccc12)C1CCCCN1` (stereo not given) [MEFLOQUINE]: the IC50 in the data set on Plasmodium falciparum [1] amounted to 55.8 nM; in the data set on Plasmodium falciparum [2] it was 7.2 nM.

For `CCN(CC)CCCC(C)Nc1ccnc2cc(Cl)ccc12` (stereo not given) [CHLOROQUINE], the Activity in the data set with Plasmodium berghei [3] is on record as 75%; with Vero, “Non-toxic”; in the data set on Plasmodium berghei [4], 100%; in the data set with Mus musculus, “Non-toxic”; with Plasmodium berghei [5], 100%; in the data set with Plasmodium berghei [6], 100%. Further, inhibition in [7] was half-maximal at 9500 nM (IC50). The Time in the data set with Plasmodium berghei [8] is above 28 days.

Turning to `Clc1ccc2c(N3CCNCCN(c4ccnc5cc(Cl)ccc45)CCNCC3)ccnc2c1`, the Activity with Plasmodium berghei [9] is listed as 84.6%; in the data set with Plasmodium berghei [3], 60%; in the data set on Plasmodium berghei [10], 96.3%; with Vero it was “Non-toxic”; in the data set with Plasmodium berghei [4] it was 100%; in the data set with Plasmodium berghei [5] it was 100%. In addition, the Activity was 59.7% in the data set with Plasmodium berghei [14]; 65.2% in the data set with Plasmodium berghei [16]; 22.7% in the data set with Plasmodium berghei [17]; 100% with Plasmodium berghei [6]; 43.9% in the data set on Plasmodium berghei [21]; 33.3% with Plasmodium berghei [22]. The Activity turned out to be 40.9% in the data set with Plasmodium berghei [24] and 44.1% in the data set with Plasmodium berghei [25]. Also, the Time with Plasmodium berghei [11] was 22.8 days; in the data set with Plasmodium berghei [15] it was 26.2 days; in the data set with Plasmodium berghei [18], 23.8 days; in the data set with Plasmodium berghei [8], above 28 days. The IC50 came out at 2.5 nM with Plasmodium falciparum [1]; 5.8 nM with Plasmodium falciparum [2]; 19.2 nM in the data set on Plasmodium falciparum [23]; 1100 nM in [7]; 7.5 nM in the data set on Plasmodium falciparum [26]; 4.1 nM in the data set on Plasmodium falciparum [28]. The result in the data set on Plasmodium berghei [12], with Plasmodium berghei [20] and in the data set on Plasmodium berghei [27] was inactive. Besides, the selectivity ratio in data set [13] was above 1330; in [19], above 521.

As for `C[C@@H]1CC[C@H]2[C@@H](C)C(=O)O[C@@H]3O[C@@]4(C)CC[C@@H]1[C@]32OO4` [ARTEMISININ], the Activity result in the data set with Vero is recorded as “Non-toxic”.

With `Br.Clc1ccc2c(N3CCNCCNCCNCC3)ccnc2c1`, the Activity entry with Vero was “Non-toxic”. In addition, the values for the selectivity ratio in data set [13] and in [19] were above 154 and above 48, respectively. The IC50 was 211 nM with Plasmodium falciparum [23] and 64.8 nM with Plasmodium falciparum [26].
